Test results taken from patent US8759579B2, “Cyclobutyl sulfones as notch sparing gamma secretase inhibitors” (Merck Sharp & Dohme Corp., priority 2008, dated 2014).
Like-named read-outs stand apart in the source and are kept apart here.

Legend:
Assay type in all cases: cell-based
[1] = test system: Aβ40 peptides generated from SH-SY5Y cells expressing amyloid β protein (SP4CT cells); test: APP processing AlphaLisa assay, secreted Aβ40; conditions: average of at least >4 replicates, read-out: AB40 IC50 AVG
Experimental: (§1) APP Processing (Assay Quantitates Secreted Aβ Analytes from Cell Lines):
(§2) The effect of compounds on the abundance of Aβ40 and Aβ42 peptides generated from SH-SY5Y cells expressing amyloid β protein (SP4CT cells) was determined by an AlphaLisa™ assay. Analogous to an ELISA assay, generation of signal in this AlphaLisa™ assay requires “donor” and “acceptor” beads to be brought in close proximity by specific antibody recognition of either Aβ40 or Aβ42 peptides. The assay was accomplished by removing media from compound-treated SP4CT cells to two different microplates, followed by the addition of donor beads conjugated with streptavidin binding a biotinylated anti-amyloid β monoclonal antibody (clone 4G8). Acceptor beads directly conjugated with anti-Aβ40 monoclonal antibody (G210) were added to one microplate and anti-Aβ42 monoclonal antibody (12F4) acceptor beads were added to the other. Abundance of Aβ40 and Aβ42 was directly proportional to the luminescent signal generated following excitation of donor beads by laser light.

[2] = test system: Aβ42 peptides generated from SH-SY5Y cells expressing amyloid β protein (SP4CT cells); test: APP processing AlphaLisa assay, secreted Aβ42; conditions: average of at least >4 replicates, read-out: AB42 IC50 AVG
Experimental: as §1, §2

[3] = biological target: T1, pregnane X receptor (PXR) (Homo sapiens, UniProt O75469); test: PXR assay (CYP3A4-SEAP transactivation assay, PCSTA); conditions: for EC50: HEP G2 cells
T1 construct: expressed in transfected cells; host or cells: HEP G2
T1 sequence (O75469 1-434): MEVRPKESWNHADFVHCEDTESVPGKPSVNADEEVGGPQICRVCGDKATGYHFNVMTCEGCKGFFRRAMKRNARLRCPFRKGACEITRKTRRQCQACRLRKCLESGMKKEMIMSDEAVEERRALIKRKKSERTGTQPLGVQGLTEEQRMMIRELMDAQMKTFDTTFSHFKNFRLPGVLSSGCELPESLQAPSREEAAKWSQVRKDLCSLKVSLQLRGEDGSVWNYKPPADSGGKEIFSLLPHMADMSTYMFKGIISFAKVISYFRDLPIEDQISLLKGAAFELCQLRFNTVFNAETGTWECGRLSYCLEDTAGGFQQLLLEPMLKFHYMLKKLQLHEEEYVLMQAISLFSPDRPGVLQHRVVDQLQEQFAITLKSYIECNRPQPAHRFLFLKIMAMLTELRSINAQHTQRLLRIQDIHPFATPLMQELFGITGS
T1 sequence (P19793 1-462 partner): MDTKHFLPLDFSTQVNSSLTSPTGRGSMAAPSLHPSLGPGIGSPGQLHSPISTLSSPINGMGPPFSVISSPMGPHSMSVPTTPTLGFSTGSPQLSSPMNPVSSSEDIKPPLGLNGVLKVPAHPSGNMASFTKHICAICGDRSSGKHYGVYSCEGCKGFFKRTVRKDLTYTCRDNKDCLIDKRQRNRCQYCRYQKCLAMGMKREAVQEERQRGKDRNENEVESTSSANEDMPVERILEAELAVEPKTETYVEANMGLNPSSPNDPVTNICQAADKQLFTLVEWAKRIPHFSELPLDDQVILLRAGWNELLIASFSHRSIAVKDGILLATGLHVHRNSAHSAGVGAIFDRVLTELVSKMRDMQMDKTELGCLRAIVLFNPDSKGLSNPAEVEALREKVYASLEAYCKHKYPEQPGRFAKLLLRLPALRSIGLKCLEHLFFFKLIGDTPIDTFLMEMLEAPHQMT
Source text: The CYP3A4-SEAP transactivation assay (PCSTA) effectively and rapidly evaluates compounds for their potential to induce cytochrome P450 CYP3A (human CYP3A4 or rat CYP3A1). The reporter construct contains regulatory regions from the CYP3A4 gene positioned just upstream of a secreted alkaline phosphatase (SEAP) gene. The human PXR nuclear receptor has been modified at the 5′-end so that methionine is the initiating amino acid replacing leucine found in the wild-type sequence. HEP G2 cells are transfected with the PXR plasmid (human or rat) and the reporter plasmid. Read-out for the induction of CYP3A4 consists of a SEAP calorimetric assay with para-nitro-phenyl phosphate (pNPP) as the substrate. Five point dose-response curves in duplicate are then generated with each point corresponding to the rate of conversion of pNPP to pNP by SEAP. For the human PCSTA, rifampicin is used as the positive control and 100% induction is based upon the maximum induction produced by rifampicin at 10 μM.

[4] = test system: gamma secretase-dependent cleavage of the Notch protein (NotchΔE) in HeLa cells; test: Notch processing split-luciferase assay (Notch intracellular domain release)
Source text: Notch Processing: (Assay Quantitates Notch Intracellular Domain Release in Cell Lines):
A “split-luciferase” assay is used to measure inhibition of gamma secretase-dependent cleavage of the Notch protein. In this assay, HeLa cells were made to express a Notch protein lacking its extracellular domain (NotchΔE) fused to an N-terminal fragment of luciferase. The same cells also expressed a C-terminal fragment of luciferase fused to the immunoglobulin J kappa recombination signal sequence binding protein (RBP). Upon NotchΔE cleavage by gamma secretase, a Notch intracellular domain (NICD)-N terminal luciferase protein is generated which translocates to the nucleus and binds the RBP-C terminal luciferase fusion, bringing two independently nonfunctional halves of luciferase together to form a functional luciferase enzyme. The activity of luciferase in these cells is directly proportional to the amount of gamma secretase-cleaved Notch. Luciferase activity is determined by the standard techniques of luciferin addition to lysed cells and measurement of total luminescence.

[5] = Homo sapiens, HeLa, average of at least >4 replicates, read-out: Notch IC50 AVG
[6] = read-out: Notch IC50 AVG, average of at least >4 replicates

SMILES | IC50 ([1]; Homo sapiens, SH-SY5Y) | IC50 ([2]; Homo sapiens, SH-SY5Y) | PXR % Activation @ 10 uM [3] | EC50 [3] | IC50 [4, 5] | IC50 [1] | IC50 [2] | IC50 [4, 6] | IC50 ([4]; average of at least >4 replicates, read-out: Notch IC50 AVG)
O=S(=O)(N[C@H]1C[C@@](c2cc(Cl)ccc2Cl)(S(=O)(=O)c2ccc(Cl)cc2)C1)C(F)(F)F [Example 4, N-[cis-3-[(4-chlorophenyl)sulfonyl]-3-(2,5-dichlorophenyl)cyclobutyl]-1,1,1-trifluoromethanesulfonamide] | 0.0708 µM | 0.0782 µM | 70.7% | 1.96 µM | 1.94 µM |  |  |  | 
O=S(=O)(N([C@H]1C[C@@](c2cc(F)ccc2F)(S(=O)(=O)c2ccc(Cl)cc2)C1)S(=O)(=O)C(F)(F)F)C(F)(F)F [Example 19, N-[cis-3-[(4-chlorophenyl)sulfonyl]-3-(2,5-difluorophenyl)cyclobutyl]-1,1,1-trifluoro-N-[(trifluoromethyl)sulfonyl]methanesulfonamide] | 0.0626 µM | 0.0487 µM | 89.1% | 1.25 µM | 5.68 µM |  |  |  | 
N#Cc1ccc(S(=O)(=O)C2(c3cc(F)ccc3F)CC(NS(=O)(=O)C(F)(F)F)C2)cc1 (stereo not drawn) [Example 9, N-[cis-3-[(4-cyanophenyl)sulfonyl]-3-(2,5-difluorophenyl)cyclobutyl]-1,1,1-trifluoromethanesulfonamide] | 0.261 µM | 0.231 µM | 54.9% | 8.36 µM | 8.9 µM |  |  |  | 
O=S(=O)(NC1CC(c2cc(Cl)ccc2F)(S(=O)(=O)c2ccc(Cl)cc2)C1)C(F)(F)F (stereo not drawn) [Example 6, N-{cis-3-(5-chloro-2-fluorophenyl)-3-[(4-chlorophenyl)sulfonyl]cyclobutyl}-1,1,1-trifluoromethanesulfonamide] | 0.13 µM | 0.106 µM | 79.2% | 1.99 µM | 5.65 µM |  |  |  | 
O=C(O)CCCN([C@H]1C[C@@](c2cc(F)ccc2F)(S(=O)(=O)c2ccc(Cl)cc2)C1)S(=O)(=O)C(F)(F)F [Example 10, 4-{[cis-3-[(4-chlorophenyl)sulfonyl]-3-(2,5-difluorophenyl)cyclobutyl][(trifluoromethyl)sulfonyl]amino}butanoic acid] | 0.0352 µM | 0.0307 µM | 76.7% | 1.24 µM | 8.31 µM |  |  |  | 
COC(=O)CN([C@H]1C[C@@](c2cc(F)ccc2F)(S(=O)(=O)c2ccc(Cl)cc2)C1)S(=O)(=O)C(F)(F)F [Example 12, Methyl {[cis-3-[(4-chlorophenyl)sulfonyl]-3-(2,5-difluorophenyl)cyclobutyl][(trifluoromethyl)sulfonyl]amino}acetate] | 0.0977 µM | 0.117 µM |  | 1.6 µM | 13.2 µM |  |  |  | 
O=S(=O)(N[C@H]1C[C@@](c2cc(F)ccc2F)(S(=O)(=O)c2ccc(OC(F)(F)F)cc2)C1)C(F)(F)F [Example 22, N-[cis-3-[(4-trifluoromethoxyphenyl)sulfonyl]-3-(2,5-difluorophenyl)cyclobutyl]-1,1,1-trifluoromethanesulfonamide] | 0.25 µM | 0.237 µM | 50.6% | 9.65 µM | 5.2 µM |  |  |  | 
O=S(=O)(N[C@H]1C[C@](c2cc(F)ccc2F)(S(=O)(=O)c2ccc(Cl)cc2)C1)C(F)(F)F [Example 1, N-[trans-3-[(4-chlorophenyl)sulfonyl]-3-(2,5-difluorophenyl)cyclobutyl]-1,1,1-trifluoromethanesulfonamide] | 0.151 µM | 0.117 µM |  | 1.22 µM | 50 µM |  |  |  | 
O=S(=O)(NC1CC(c2cc(F)ccc2F)(S(=O)(=O)c2ccc(F)c(F)c2)C1)C(F)(F)F (stereo not drawn) [Example 8, N-{cis-3-(2,5-difluorophenyl)-3-[(3,4-difluorophenyl)sulfonyl]cyclobutyl}-1,1,1-trifluoromethanesulfonamide] | 0.0792 µM | 0.0628 µM | 82.3% | 1.26 µM | 3.14 µM |  |  |  | 
O=C(O)CN([C@H]1C[C@@](c2cc(F)ccc2F)(S(=O)(=O)c2ccc(Cl)cc2)C1)S(=O)(=O)C(F)(F)F [Example 16, N-[cis-3-[(4-chlorophenyl)sulfonyl]-3-(2,5-difluorophenyl)cyclobutyl]-N-[(trifluoromethyl)sulfonyl]glycine] | 0.0967 µM | 0.0679 µM | 100% | 1.01 µM | 32 µM |  |  |  | 
O=S(=O)([N-][C@H]1C[C@@](c2cc(F)ccc2F)(S(=O)(=O)c2ccc(Cl)cc2)C1)C(F)(F)F.[K+] [Example 21, Potassium [cis-3-[(4-chlorophenyl)sulfonyl]-3-(2,5-difluorophenyl)cyclobutyl][(trifluoromethyl)sulfonyl]azanide] |  |  | 64.4% | 3.38 µM |  | 0.0649 µM | 0.0709 µM | 2.13 µM | 
CN(C1CC(c2cc(F)ccc2F)(S(=O)(=O)c2ccc(Cl)cc2)C1)S(=O)(=O)C(F)(F)F (stereo not drawn) [Example 13, N-[3-[(4-chlorophenyl)sulfonyl]-3-(2,5-difluorophenyl)cyclobutyl]-1,1,1-trifluoro-N-methylmethanesulfonamide] |  |  |  | 1.26 µM |  | 0.0184 µM | 0.0189 µM |  | 4.81 µM
COC(=O)CCCN([C@H]1C[C@@](c2cc(F)ccc2F)(S(=O)(=O)c2ccc(Cl)cc2)C1)S(=O)(=O)C(F)(F)F [Example 15, methyl 4-{[cis-3-[(4-chlorophcnyl)sulfonyl]-3-(2,5-difluorophenyl)cyclobutyl][(trifluoromethyl)sulfonyl]amino}butanoate] | 0.0518 µM | 0.0518 µM |  | 1.21 µM | 2.83 µM |  |  |  | 
O=S(=O)([N-][C@H]1C[C@@](c2cc(F)ccc2F)(S(=O)(=O)c2ccc(Cl)cc2)C1)C(F)(F)F.[Na+] [Example 20, Sodium [cis-3-[(4-chlorophenyl)sulfonyl]-3-(2,5-difluorophenyl)cyclobutyl][(trifluoromethyl)sulfonyl]azanide] |  |  | 71.9% | 2.89 µM |  | 0.0612 µM | 0.0532 µM | 1.77 µM | 
